# Reference: PMC7235904, “Is Blood a Good Indicator for Detecting Antimicrobials in Meat? Evidence for the Development of In Vivo Surveillance Methods” (Antibiotics, 2020)
# “Also recorded” adds a separate entry of the source. Marks after values point to notes of the source that are not given here.
# Key:
# [1] = Antimicrobial residue concentration and depletion in blood (serum) of treated pigs within the withdrawal period (LC-MS/MS); assay type: in vivo
# Text: To obtain samples containing antimicrobial compounds administered in vivo, 93 piglets (62 female, 31 male) with an average weight of 43.00 ± 12.79 kg were provided at treatment onset. These piglets were untreated animals that remained on the premises of the Faculty of Veterinary Sciences at the University of Zaragoza (Zaragoza, Spain) 40 days before administration of the compounds. Both during the acclimatization and withdrawal periods, animals were fed ad libitum with a special mixed feed that was free of antibiotics ([…], Spain), and water was provided from a separated, controlled water circuit. Piglets were raised in separate pens depending on the antibiotic administrated. After administration, animals were slaughtered at preset intervals within the withdrawal period in order to obtain samples containing different antimicrobial concentrations above and below the MRLs for muscle. Figure S1 indicates the slaughter days and the withdrawal periods set by the manufacturer for each antimicrobial compound administered. Between one and three piglets were slaughtered on the same day post-administration. The day of slaughter was calculated from the first day after the last antimicrobial treatment dose. […] Apart from samples containing antimicrobial compounds administered in vivo, and as a part of the sample bank, 15 of the 93 piglets were slaughtered after the acclimatization period and before treatment onset. Animals were stunned and slaughtered following the guidelines established by European Council Regulation (EC) No. 1099/2009 [39] regarding the protection of animals at the time of slaughter or killing. A penetrative captive bolt gun was used to stun the pigs, positioning it firmly against the skin, in the middle of the forehead, 2 cm above the line of the eyes, aiming towards the tail. This was followed by complete exsanguination carried out by incision in the jugular furrow at the base of the neck to sever all the major blood vessels arising from the heart. The samples obtained from them were used as blank samples for analysis. Blood was collected not only from slaughtered animals, but also from living animals on each day of slaughter. […] For quinolones in blood serum samples, a LC-MS/MS method was set up using a SCIEX Exion LC coupled to TripleQuad 6500+ triple quadrupole detector equipped with an Acquity Ultra Performance Liquid Chromatography Ethylene Bridged Hybrid (UPLC BEH) C18 (1.7 μm, 2.1 × 100 mm) column. Mobile phase consisted of eluent A: 0.1% formic acid in water, and eluent B: 0.1% formic acid in acetonitrile at a flow rate of 0.4 mL/min. […] Injected volume was 5 μL. Analytes were detected using positive electrospray ionization (ESI+) in multiple reaction monitoring (MRM) mode, and two transitions were monitored for each compound of interest (Table S4). […] The same mobile phase and gradient conditions as in SCIEX instruments were applied. […] Two ESI+ MRM transitions were monitored for each compound (Table S5). […] Results were represented as the mean ± standard deviation using the PRISM program (GraphPad Software, Inc., San Diego, USA). The rates of elimination (λz) of antibiotics from muscle and blood were determined by regression analysis. The corresponding half-lives of elimination were calculated according to the following equation: Half-life of elimination.
# [2] = Relationship between concentrations detected in paired blood and muscle samples; assay type: in vivo, pigs; settings: paired pig blood and muscle samples
# Procedure: After administration, animals were slaughtered at preset intervals within the withdrawal period in order to obtain samples containing different antimicrobial concentrations above and below the MRLs for muscle. Figure S1 indicates the slaughter days and the withdrawal periods set by the manufacturer for each antimicrobial compound administered. Between one and three piglets were slaughtered on the same day post-administration. The day of slaughter was calculated from the first day after the last antimicrobial treatment dose. […] Apart from samples containing antimicrobial compounds administered in vivo, and as a part of the sample bank, 15 of the 93 piglets were slaughtered after the acclimatization period and before treatment onset. Animals were stunned and slaughtered following the guidelines established by European Council Regulation (EC) No. 1099/2009 [39] regarding the protection of animals at the time of slaughter or killing. A penetrative captive bolt gun was used to stun the pigs, positioning it firmly against the skin, in the middle of the forehead, 2 cm above the line of the eyes, aiming towards the tail. […]
# Data were analyzed and submitted to comparison of averages via ANOVA, followed by a post-hoc Tukey test and t-tests with GraphPad PRISM. […]
# [3] = over the sample bank of treated piglets
structure (smiles),measurement,setting,value
"COc1ccc(NS(=O)(=O)c2ccc(N)cc2)nn1 [Sulfamethoxypyridazine, sulfamethoxypyridazine]",half-life,"[1]; both sexes, intramuscular, pig blood serum, T1/2=Ln(2)/λz, read-out: T1/2 half-life of elimination (BLOOD) (converted)",13.2 h
same,Maximum concentration value in Blood,[1]; [3],4098.00 ± 201.34 µg/kg
same,Minimum concentration value in Blood,[1]; [3],23.67 ± 20.23 µg/kg
same,Slope (BLOOD),"[1]; pig blood serum, regression of concentration over the withdrawal period, deep intramuscular treatment",−0.5496 ± 0.02589 ^a
same,Concentration in blood compared to muscle,[2],three times higher in blood; also recorded: around three times higher
